Experiments:
Format in all cases: in vivo
[1] = tested on: Frankliniella occidentalis (Western Flower Thrips); test: Example B4: Frankliniella occidentalis, sprayed sunflower leaf discs, mixed ages; conditions: foliar, 168 h, application rate of 200 ppm, population of mixed ages, 7 days after infestation
Description: Example B4: Frankliniella occidentalis (Western Flower Thrips)
(§1) Sunflower leaf discs were placed on agar in 24-well microtiter plates and sprayed with aqueous test solutions prepared from 10′000 DMSO stock solutions. After drying the leaf discs were infested with a Frankliniella population of mixed ages. The samples were assessed for mortality 7 days after infestation.

[2] = tested on: Plutella xylostella (Diamond Back Moth); test: Example B6: Plutella xylostella, treated artificial diet, L2 larvae; conditions: 120 h, application rate of 200 ppm, 5 days after infestation, read-out: effect in at least one of the two categories (mortality or growth inhibition)
Description: Example B6: Plutella xylostella (Diamond Back Moth)
(§2) 24-well microtiter plates with artificial diet were treated with aqueous test solutions prepared from 10′000 ppm DMSO stock solutions by pipetting. After drying, the plates were infested with L2 larvae (10 to 15 per well). The samples were assessed for mortality and growth inhibition in comparison to untreated samples 5 days after infestation.

[3] = tested on: Bemisia tabaci (Cotton White fly); test: Example B1: Bemisia tabaci, sprayed cotton leaf discs, adult mortality; conditions: foliar, 144 h, application rate of 200 ppm, adult white flies, 6 days after incubation
Description: Example B1: Bemisia tabaci (Cotton White fly)
Cotton leaf discs were placed on agar in 24-well microtiter plates and sprayed with aqueous test solutions prepared from 10′000 ppm DMSO stock solutions. After drying the leaf discs were infested with adult white flies. The samples were checked for mortality 6 days after incubation.

[4] = tested on: Myzus persicae (Green Peach Aphid); test: Example B5: Myzus persicae, sprayed sunflower leaf discs, mixed ages; conditions: foliar, 144 h, application rate of 200 ppm, aphid population of mixed ages, 6 days after infestation
Description: Example B5: Myzus persicae (Green Peach Aphid)
Sunflower leaf discs were placed on agar in a 24-well microtiter plate and sprayed with aqueous test solutions prepared from 10′000 ppm DMSO stock solutions. After drying, the leaf discs were infested with an aphid population of mixed ages. The samples were assessed for mortality 6 days after infestation.

[5] = tested on: Spodoptera littoralis (Egyptian Cotton Leaf Worm); test: Example B7: Spodoptera littoralis, sprayed cotton leaf discs, L1 larvae; conditions: foliar, 72 h, application rate of 200 ppm, 3 days after infestation, read-out: control (at least one of mortality, anti-feedant effect, and growth inhibition)
Description: Example B7: Spodoptera littoralis (Egyptian Cotton Leaf Worm)
Cotton leaf discs were placed on agar in 24-well microtiter plates and sprayed with aqueous test solutions prepared from 10′000 ppm DMSO stock solutions. After drying the leaf discs were infested with five L1 larvae. The samples were assessed for mortality, anti-feedant effect, and growth inhibition in comparison to untreated samples 3 days after infestation. Control of Spodoptera littoralis by a test sample is when at least one of mortality, anti-feedant effect, and growth inhibition is higher than the untreated sample.

[6] = tested on: Thrips tabaci (Onion Thrips); test: Example B10: Thrips tabaci, sprayed sunflower leaf discs, mixed ages; conditions: foliar, 144 h, application rate of 200 ppm, thrips population of mixed ages, 6 days after infestation
Description: Example B10: Thrips tabaci (Onion Thrips)
as §1, with “10′000 ppm” for “10′000”, “thrips” for “Frankliniella”, “6” for “7”

[7] = tested on: Spodoptera littoralis (Egyptian Cotton Leaf Worm); test: Example B8: Spodoptera littoralis, systemic test, compound in agar taken up by lettuce roots; conditions: 144 h, test rate of 12.5 ppm, systemic via lettuce roots, 6 days after infestation, read-out: effect in at least one of the three categories (mortality, anti-feedancy, or growth inhibition)
Text: Example B8: Spodoptera littoralis (Egyptian Cotton Leaf Worm)
Test compounds were applied by pipette from 10′000 ppm DMSO stock solutions into 24-well plates and mixed with agar. Lettuce seeds were placed on the agar and the multi well plate was closed by another plate which contains also agar. After 7 days the roots have absorbed the compound and the lettuce has grown into the lid plate. The lettuce leafs were now cut off into the lid plate. Spodoptera eggs were pipetted through a plastic stencil on a humid gel blotting paper and the plate closed with it. The samples were assessed for mortality, anti-feedant effect and growth inhibition in comparison to untreated samples 6 days after infestation.

[8] = tested on: Euschistus heros (Neotropical Brown Stink Bug); test: Example B3: Euschistus heros, sprayed soybean leaf, N-2 nymphs; conditions: 120 h, application rate of 200 ppm, 5 days after infestation, read-out: effect in at least one of the two categories (mortality or growth inhibition)
Description: Example B3: Euschistus heros (Neotropical Brown Stink Bug)
Soybean leaf on agar in 24-well microtiter plates were sprayed with aqueous test solutions prepared from 10′000 ppm DMSO stock solutions. After drying the leaf were infested with N-2 nymphs. The samples were assessed for growth inhibition in comparison to untreated samples 5 days after infestation.

[9] = tested on: Diabrotica balteata (Corn Root Worm); test: Example B2: Diabrotica balteata, sprayed maize sprouts, L2 larvae; conditions: 96 h, application rate of 200 ppm, 4 days after infestation
Description: Example B2: Diabrotica balteata (Corn Root Worm)
as §2, with “Maize sprouts, placed on an agar layer in 24-well” for “24-well”, “plates” for “plates with artificial diet”, “spraying.” for “pipetting.”, “(6” for “(10”, “10” for “15”, “4” for “5”

[10] = tested on: Tetranychus urticae (Two-Spotted Spider Mite); test: Example B9: Tetranychus urticae, sprayed bean leaf discs, mixed population; conditions: foliar, 192 h
Description: Example B9: Tetranychus urticae (Two-Spotted Spider Mite)
Bean leaf discs on agar in 24-well microtiter plates were sprayed with aqueous test solutions prepared from 10′000 ppm DMSO stock solutions. After drying the leaf discs were infested with a mite population of mixed ages. The samples were assessed for mortality on mixed population (mobile stages) 8 days after infestation.

CCS(=O)(=O)c1cc(-c2cc(F)cc(F)c2)cnc1-c1nc2cc(C(F)(F)F)nnc2n1C [P1, 6-[5-(3,5-difluorophenyl)-3-ethylsulfonyl-2-pyridyl]-7-methyl-3-(trifluoromethyl)imidazo[4,5-c]pyridazine]
≥ 80%: mortality at 200 ppm [1] | percent effect (mortality or growth inhibition) at 200 ppm [2] | mortality at 200 ppm [3] | mortality at 200 ppm [4] | mortality at 200 ppm [5] | mortality at 200 ppm [6] | percent control (mortality, anti-feedancy or growth inhibition) at 12.5 ppm [7] | percent effect (mortality or growth inhibition) at 200 ppm [8] | mortality at 200 ppm [9]

CCS(=O)(=O)c1cc(-n2ccc(C(F)(F)F)n2)cnc1-c1nc2cc(C(F)(F)F)nnc2n1C [P2, 6-[3-ethylsulfonyl-5-[3-(trifluoromethyl)pyrazol-1-yl]-2-pyridyl]-7-methyl-3-(trifluoromethyl)imidazo[4,5-c]pyridazine]
≥ 80%: percent effect (mortality or growth inhibition) at 200 ppm [2] | mortality at 200 ppm [3] | mortality at 200 ppm [4] | mortality at 200 ppm [5] | mortality at 200 ppm [6] | percent effect (mortality or growth inhibition) at 200 ppm [8] | mortality at 200 ppm [9]

CCS(=O)(=O)c1cc(-c2ccc(C(F)(F)F)cc2)cnc1-c1nc2cc(C(F)(F)F)nnc2n1C [P3]
≥ 80%: mortality at 200 ppm [1] | percent effect (mortality or growth inhibition) at 200 ppm [2] | mortality at 200 ppm [4] | mortality at 200 ppm [5] | percent effect (mortality or growth inhibition) at 200 ppm [8] | mortality at 200 ppm [9]

CCSc1cc(-c2ccc(C(F)(F)F)cc2)ccc1-c1nc2cc(C(F)(F)F)nnc2n1C [P4, 6-[2-ethylsulfanyl-4-[4-(trifluoromethyl)phenyl]phenyl]-7-methyl-3-(trifluoromethyl)imidazo[4,5-c]pyridazine]
≥ 80%: percent effect (mortality or growth inhibition) at 200 ppm [2] | mortality at 200 ppm [5] | mortality at 200 ppm [9]

CCS(=O)(=O)c1cc(-c2ccc(C(F)(F)F)cc2)ccc1-c1nc2cc(C(F)(F)F)nnc2n1C [P5]
≥ 80%: percent effect (mortality or growth inhibition) at 200 ppm [2] | mortality at 200 ppm [10] | mortality at 200 ppm [5] | mortality at 200 ppm [9]

Reference: patent publication US10544148B2, “Pesticidally active tetracyclic heterocyclic derivatives with sulphur containing substituents” (Syngenta Participations AG, priority 2014, dated 2020)
